Experiment: physchem
Conditions: HBS, aqueous buffer

Clc1ccc(COC(Cn2ccnc2)c2ccc(Cl)cc2Cl)cc1 (stereo not shown) [econazole, [(dichloro-2,4 phenyl)-2(chloro-4 benzoyloxy)-2 ethyl]-1 imidazole nitrate]
solubility: < 100 µg/mL

Source: patent US20080026049A1, “LIPOSOMAL COMPOSITIONS FOR PARENTERAL DELIVERY OF AGENTS” (priority 2005, published 2008)
